Patent US9993491B2, “Guanine riboswitch binding compounds and their use as antibiotics” (SOCPRA—SCIENCES ET GENIE S.E.C., priority 2009, dated 2018)
In brackets after ≈: the same amount, converted by molar mass. Like-named read-outs stand apart in the source and are kept apart here.

Legend:
[1] = system: S. aureus strain ATCC 29213; experiment: MIC / growth inhibition, microdilution method; type: cell-based; conditions: for MIC: Staphylococcus aureus, ATCC29213, 24 h; for S. aureus growth inhibition: Yes/No
E. coli ATCC35695 = experiment: MIC, microdilution method in 96-well microplates; conditions: for MIC: Escherichia coli, ATCC35695, 24 h, read-out: Minimum inhibitory concentration (MIC); for Antimicrobial activity on E. coli: E. coli strain ATCC 35695
S. aureus genes = experiment: Transcriptomic microarray analysis of more than 500 genes; type: cell-based; conditions: 30 min
[2] = Tolerance of intramammary injection in cows; type: in vivo, Holstein cows; conditions: intramammary 100 mg, 250 mg or 500 mg per quarter, 4 cows, 48 h
E. coli AcrAB—/— = experiment: microbe, parasite or virus in culture; conditions: Escherichia coli, 24 h, read-out: Minimum inhibitory concentration (MIC)
S. aureus = S. aureus infection of the mouse mammary glands, CFU count; type: in vivo; conditions: intra-mammary injection of 10 times the effective dose; treated 4 h after infection, glands excised 6 h later
Description: The efficacy of compound 1.01 in treating a S. aureus infection of the mouse mammary glands was examined. Briefly, mouse mammary glands were infected with 100 CFU of S. aureus. Four hours after the inoculation, the glands were treated with vehicle (PBS), 10, 50 or 100 μg/gland of compound 1.01. Six hours later, glands were excised, homogenized and plated on Mueller-Hinton agar. CFU were then counted after 18 hours at 35° C. Each dot represents the CFU of each individual gland (n=6-12) and the median value for each group is indicated by the bar. Statistical differences (P<0.05) between CFU recovered from treated and untreated animals are shown by asterisks (non-parametric Kruskal-Wallis ANOVA with Dunn's post test).

[3] = system: S. aureus strain ATCC 29213; experiment: Growth as a function of time (CFU counts); type: cell-based; conditions: compared with ciprofloxacin
[4] = system: Bacillus subtilis, Enterococcus feacium, Listeria monocytogenes, Streptococcus dysgalactiae, Streptococus pyogenes, Streptococcus uberis; type: cell-based
[5] = system: S. aureus strain ATCC 29213; type: cell-based; conditions: sub-inhibitory concentrations, MIC determined every 5 passages up to 30
E. coli Imp = experiment: microbe, parasite or virus in culture; conditions: Escherichia coli, 24 h, read-out: Minimum inhibitory concentration (MIC)
[6] = system: guanine xpt riboswitch from Streptococcus pyogenes (STPY-xpt); experiment: Relative binding by displacement of 2-aminopurine from the STPY-xpt aptamer
Description: Shown in FIG. 4A is the structure of the guanine ligand and the compounds: 4-hydroxy-2,5,6-triaminopyrimidine shown as 2,5,6-triaminopyrimidine-4-one (compound 1.01), 2,4-diamino-6-hydroxypyrimidine shown as 2,6-diaminopyrimidine-4-one (compound 1.13) and 5,6-diamino-uracil (2AU) as well as their predicted hydrogen bonds (arrows). […] The experiment was performed as in for example Mulhbacher and Lafontaine, 2007. […] Briefly, STPY-xpt aptamers were incubated in the presence of the guanine-like ligand 2-aminopurine alone (Neg. control) or in the presence of 1 or 10 μM of the above-listed compounds. The relative binding affinity was obtained from the ability of a ligand to displace the 2-aminopurine from the guanine riboswitch STPY-xpt aptamer.

[7] = system: Bacillus halodurans, S. haemolyticus, S. aureus ATCC29213, SA228a, MRSA COL, Clostridium botulinum, Clostridium difficile Cd6 and 630, S. epidermidis; type: cell-based
S. aureus Chronic #3 = experiment: Bactericidal activity, fold reduction of CFU/mL; type: cell-based; conditions: 600 μg/mL, 4 hours
Description: (§1) The bactericidal activity of compound 1.01 on various strains of S. aureus (including 3 chronic strains and 3 prototypical strains) was determined. These strains include prototypical S. aureus strains ATCC 29213, Newbould 305, SHY97-3906 as well as S. aureus strains isolated from persistent and chronic bovine mastitis cases (isolates #3, #557, #1290). C. difficile strain Cd6 was also examined. […] The results are summarized in Table 5 below and are expressed as the mean fold reduction of CFU/mL (i.e., the number of CFU/mL of control bacteria divided by the number of CFU/mL of treated bacteria).

S. aureus Chronic #557 = experiment: Bactericidal activity, fold reduction of CFU/mL; type: cell-based; conditions: 600 μg/mL, 4 hours
Description: as §1

S. aureus Newbould 305 = experiment: Bactericidal activity, fold reduction of CFU/mL; type: cell-based; conditions: 600 μg/mL, 4 hours
Description: as §1

S. aureus Chronic #1290 = experiment: Bactericidal activity, fold reduction of CFU/mL; type: cell-based; conditions: 600 μg/mL, 4 hours
Description: as §1

S. aureus ATCC 29213 = experiment: Bactericidal activity, fold reduction of CFU/mL; type: cell-based; conditions: 600 μg/mL, 4 hours
Description: as §1

S. aureus SHY97-3906 = experiment: Bactericidal activity, fold reduction of CFU/mL; type: cell-based; conditions: 600 μg/mL, 4 hours
Description: as §1

C. difficile (Cd6) = experiment: Bactericidal activity, fold reduction of CFU/mL; type: cell-based; conditions: 600 μg/mL, 4 hours
Description: as §1

guanine riboswitch = experiment: Guanine riboswitch binding (Table 6); conditions: Yes/No
E. coli ATCC 35695 = experiment: Antibiogram with 6-thioguanine; type: cell-based; conditions: 0.5 or 1 mg/mL; E. coli ATCC 35695 (lacks guaA riboswitch)
[8] = system: methicillin resistant S. aureus; experiment: Antibiogram with 6-thioguanine; type: cell-based; conditions: 0.5 or 1 mg/mL
[9] = S. aureus ATCC 29213, 24 h, 37° C., read-out: MIC
[10] = compound at 10 μM, compared with 1 μM guanine
[11] = S. aureus ATCC 29213, 24 h, 37° C., read-out: S. aureus growth inhibition, MIC

## Nc1nc(N)c(N)c(O)n1 [Compound 1.01, 4-hydroxy-2,5,6-triaminopyrimidine]
[1]; [9]
  MIC: ~600 µg/mL (≈ 4250 µM)
E. coli ATCC35695
  MIC: > 5000 µg/mL
S. aureus genes; 600 μg/mL compound alone
  Genes repressed: > 75%
S. aureus genes; 600 μg/mL compound supplemented with 100 μM GMP
  Genes repressed: 20%
[2]
  Body temperature, milk appearance, milk somatic cell counts, milk quarter production: no change in body temperature, milk appearance, milk somatic cell counts or individual milk quarter production
E. coli AcrAB—/—
  MIC: > 5000 µg/mL
100 μg/gland, compared to PBS-treated glands
  Cytotoxicity upon histological observations of mammary tissues: no apparent cytotoxicity
mouse, in vivo
  Signs of toxicity in mice (posture, breathing, piloerection, movement): without causing any significant signs of toxicity
S. aureus
  Reduction of bacterial counts: > 3 log10
[3]
  Rapidity of anti-bacterial effect: as rapid as that of the well-known antibiotic ciprofloxacin
[4]
  Sensitivity of strains in antibiogram: insensitive
[5]
  Passages until resistance is selected: at least 30 passages
E. coli Imp
  MIC: > 5000 µg/mL
[6]; [10]
  Relative binding: 0.26
[7]
  Sensitivity of strains in antibiogram: sensitive
S. aureus Chronic #3
  Fold reduction of CFU/mL (control/treated), Mean (log10): 5.11 log10
S. aureus Chronic #557
  Fold reduction of CFU/mL (control/treated), Mean (log10): 4.38 log10
S. aureus Newbould 305
  Fold reduction of CFU/mL (control/treated), Mean (log10): 4.86 log10
S. aureus Chronic #1290
  Fold reduction of CFU/mL (control/treated), Mean (log10): 5.42 log10
S. aureus ATCC 29213
  Fold reduction of CFU/mL (control/treated), Mean (log10): 6.67 log10
S. aureus SHY97-3906
  Fold reduction of CFU/mL (control/treated), Mean (log10): 6.35 log10
C. difficile (Cd6)
  Fold reduction of CFU/mL (control/treated), Mean (log10): 5.42 log10

## O=C(O)c1cn(C2CC2)c2cc(N3CCNCC3)c(F)cc2c1=O [ciprofloxacin, reference compound]
[1]; [9]
  MIC: 0.5 µg/mL (≈ 1.51 µM)

## Nc1ncnc2[nH]cnc12 [adenine]
[6]; [10]
  Relative binding: 0.05

## Nc1nc2ocnc2c(=O)[nH]1 [Compound 2.02, 5-Amino-6H-oxazolo[5,4-d]pyrimidin-7-one]
[1]; S. aureus ATCC 29213, 24 h, 37° C.
  S. aureus growth inhibition, MIC: 1000 µg/mL
[1]; [11]
  MIC: 1020 µg/mL (≈ 6730 µM)
[1]
  S. aureus growth inhibition: Yes
E. coli ATCC35695
  Antimicrobial activity on E. coli: no antimicrobial activity
Guanine riboswitch
  Guanine riboswitch binding: able to bind guanine riboswitch and Yes

## CC[C@H]1OC(=O)[C@H](C)[C@@H](O[C@H]2C[C@@](C)(OC)[C@@H](O)[C@H](C)O2)[C@H](C)[C@@H](O[C@@H]2O[C@H](C)C[C@H](N(C)C)[C@H]2O)[C@](C)(O)C[C@@H](C)C(=O)[C@H](C)[C@@H](O)[C@]1(C)O [Erythromicin, reference compound]
[1]; [9]
  MIC: 0.5 µg/mL (≈ 0.681 µM)
E. coli ATCC35695
  MIC: 128 µg/mL (≈ 174 µM)
E. coli AcrAB—/—
  MIC: 1 to 4 µg/mL (≈ 1.36 to 5.45 µM)
E. coli Imp
  MIC: 0.125 to 1 µg/mL (≈ 0.17 to 1.36 µM)

## Nc1cc(=O)[nH]c(N)n1 [Compound 1.13, 2,4-diamino-6-hydroxypyrimidine]
[1]; [9]
  MIC: ~5000 µg/mL (≈ 39600 µM)
E. coli ATCC35695
  MIC: > 5000 µg/mL
E. coli AcrAB—/—
  MIC: > 5000 µg/mL
E. coli Imp
  MIC: > 5000 µg/mL
[6]; [10]
  Relative binding: 0.39

## O=c1[nH]c(=O)c2nc[nH]c2[nH]1 [xanthine]
[6]; [10]
  Relative binding: 0.08

## Nc1nc2[nH]cnc2c(=O)[nH]1 [guanine]
[6]; compound at 1 μM
  Relative binding: 1

## O=c1[nH]cnc2[nH]cnc12 [hypoxanthine]
[6]; [10]
  Relative binding: 0.50

## Nc1nc2[nH]cnc2c(=S)[nH]1 [6-thioguanine]
E. coli ATCC 35695
  Antibiotic activity in antibiogram: non-specific antibiotic activity
[8]
  Antibiotic activity in antibiogram: non-specific antibiotic activity
[6]; [10]
  Relative binding: 0.14

## Nc1[nH]c(=O)[nH]c(=O)c1N
[6]; [10]
  Relative binding: 0.05

## Nc1nc2nc(Cl)sc2c(=O)[nH]1 [Compound 2.17, 5-amino-2-chloro-2,3-dihydrothiazolo[4,5]pyrimidine-7-(6H)-one]
[1]; [11]
  MIC: 128 µg/mL (≈ 632 µM)
[1]
  S. aureus growth inhibition: Yes
E. coli ATCC35695
  Antimicrobial activity on E. coli: no antimicrobial activity
Guanine riboswitch
  Guanine riboswitch binding: Yes

## Nc1nc(S)[nH]c(=O)c1N [Compound 1.16, 4,5-diamino-6-hydroxy-2-mercaptopyrimidine]
[1]; [11]
  MIC: 128 µg/mL (≈ 809 µM)
[1]
  S. aureus growth inhibition: Yes
E. coli ATCC35695
  Antimicrobial activity on E. coli: no antimicrobial activity
Guanine riboswitch
  Guanine riboswitch binding: Yes

## CN[C@H](CC(C)C)C(=O)N[C@H]1C(=O)N[C@@H](CC(N)=O)C(=O)N[C@H]2C(=O)N[C@H]3C(=O)N[C@H](C(=O)N[C@H](C(=O)O)c4cc(O)cc(O)c4-c4cc3ccc4O)[C@H](O)c3ccc(c(Cl)c3)Oc3cc2cc(c3O[C@@H]2O[C@H](CO)[C@@H](O)[C@H](O)[C@H]2O[C@H]2C[C@](C)(N)[C@H](O)[C@H](C)O2)Oc2ccc(cc2Cl)[C@H]1O [Vancomycin, reference compound]
[1]
  MIC: 1 µg/mL (≈ 0.69 µM)
E. coli ATCC35695
  MIC: > 128 µg/mL
E. coli AcrAB—/—
  MIC: > 128 µg/mL
E. coli Imp
  MIC: 0.25 µg/mL (≈ 0.173 µM)
